US8058442B2 (Technion Research and Development Foundation Ltd., priority 2002, dated 2011)
Where two headings read alike, the source gives them in different places. Marks after values point to notes of the source that are not given here. Each block holds one compound with its values, some of them ahead of it.

Key:
[1] = n-octanol/water shake-flask distribution coefficient; assay type: physicochemical; settings: for D in 0.01N HCl / D in 0.01N NaOH / D in H2O: distribution ratio D = Corg/Caq
Excerpt: The partition coefficient (Pow) or the distribution ratio (Dow) between octanol and water are most commonly used measures of the hydrophobicity of compounds. Dow can depend on the concentration of solute, but at reasonably low concentrations. If the solute is in the same form in both phases, Dow becomes constant and is called the partition coefficient Pow. Pow plays an important role in determining the physico-chemical properties and the behaviour of numerous organic compounds in biological systems. Pow is applied to quantitative structure-activity relationship studies, and as a measure of hydrophobicity. All the partition measurements are carried out using a 1-octanol/water shake-flask procedure (Leo, A J. 1991, “Hydrophobic parameter: measurement and calculation”, Methods Enzymol. 202:544-91) or simply by the elution time of solute from HPLC column. Thereafter, the transport properties of the iron-complexes are examined in the water/lipid membrane system (liposomes), which mimics biomembranes much better than the octanol/water system (Breuer et al, 1995).
1-Octanol (Riedel-deHaën, synthesis grade (250-270 nm abs.<0.06) and glass distilled deionized water were used as the partitioning solutions. A Hewlett-Packard 8450A diode array spectrophotometer was used for the quantitative determination of the tested com-pounds in the standard solutions and in the partitioned solutions. The aqueous phase stock solutions were shaken with an excess of 1-octanol to presaturate them and were then allow-ed to stand overnight before use. The 1-octanol stock solutions were also presaturated with 10 mM NaOH and allowed to settle overnight. The experiments were performed in 10-ml stoppered centrifuge tubes. The tubes were inverted gently for 5 min and then, to assure complete phase separation, they were centrifuged for 20 min at 1,000-2,000 g. The aqueous and organic phases were removed separately and analyzed by UV spectrophotometry.
Lipophilicity plays an important role in drug absorption and distribution. The logarithm of the n-octanol/water distribution coefficients (logD) is the most commonly used measure of the lipophilicity of a drug candidate. Here we used an n-octanol/water shake-flask procedure to determine logD. […] In acidic and basic solution, all the test compounds have low log D values, which refer to a good hydrophilicity. This can be explained by the formation of oxinium chloride (in acid) and sodium oxinate (in base) derivatives.

[2] = Iron chelation in solution: fluorescence dequenching of iron-quenched calcein; settings: Fe-CAL in HBS pH 7.4, room temperature, 1 h incubation, read-out: half maximal dequenching level
Procedure: Iron binding was determined by the chelator capacity for restoring the fluorescence of iron-quenched calcein (CAL), a dynamic fluorescent metallosensor. The iron-scavenging properties of the chelators were assessed in solution, by mixing iron salts with free CAL.
Iron precomplexed calcein (Fe-CAL) solutions of 1 μm (in Hepes 20 mM buffered saline, pH 7.4=HBS) were incubated in the presence of the indicated concentrations of different chelators at room temperature and the fluorescence intensity (475 nm->520 nm) followed with time in a Tecan fluorescence plate reader, using 96-well culture plates (Nunc) at 100 μl final volume. The time-dependent complexation of iron from Fe-CAL by the chelators was followed by fluorescence dequenching. The fluorescence intensity attained after 1 h incubation is shown as a function of the chelator concentration.
The corresponding half maximal dequenching level for the corresponding chelator was (in μM) (rank order from the fastest acting to the slowest): […]

[3] = test system: human erythroleukemia K562 cells; test: Iron permeation of the chelators into calcein-loaded K562 cells; assay type: cell-based; settings: 5 μM chelator, 37° C.
Procedure: The iron-scavenging properties of the chelators were assessed in human erythroleukemia K562 cells, by loading with the permeant CAL-AM probe, in situ formation of free CAL, and binding of cytosolic labile iron. Calcein-AM readily passes through the cell membrane of viable cells because of the enhanced hydrophobicity as compared to Calcein. When Calcein-AM permeates into the cytoplasm, it is hydrolyzed by esterases in cells to the parent Calcein, a pH-independent, cytosolic fluorescent marker, which remains inside of the cell. The time-dependent recovery of fluorescence in the presence of a given chelator provided a continuous measure for the capacity of the chelator to access the iron/CAL-containing compartment.
Calcein uptake and intracellular fluorescence were determined as follows: K562 erythroleukemia cells were preloaded with calcein (CAL) by incubation with […] of the fluorescent probe CAL-AM for 5 min at 37° C., washed and incubated in HBS medium containing anti-CAL antibodies in order to quench traces of extracellular-associated fluorescence. The suspensions were placed in 96-well plates (100 μl final volume) and analyzed as described above while maintaining the system at 37° C. At the indicated time, the indicated chelator was added so as to reach a final 5 μM concentration.
The values of half maximal time (sec) and fraction of fluorescence recovery were: […]

[4] = target: T1, rat brain MAO-A (Rattus norvegicus, UniProt P21396); test: In vitro inhibition of rat brain MAO-A; assay type: biochemical; settings: rat brain homogenate
T1 construct: from tissue; host or cells: rat brain homogenate, 4500 g pellet
T1 sequence (P21396 1-526): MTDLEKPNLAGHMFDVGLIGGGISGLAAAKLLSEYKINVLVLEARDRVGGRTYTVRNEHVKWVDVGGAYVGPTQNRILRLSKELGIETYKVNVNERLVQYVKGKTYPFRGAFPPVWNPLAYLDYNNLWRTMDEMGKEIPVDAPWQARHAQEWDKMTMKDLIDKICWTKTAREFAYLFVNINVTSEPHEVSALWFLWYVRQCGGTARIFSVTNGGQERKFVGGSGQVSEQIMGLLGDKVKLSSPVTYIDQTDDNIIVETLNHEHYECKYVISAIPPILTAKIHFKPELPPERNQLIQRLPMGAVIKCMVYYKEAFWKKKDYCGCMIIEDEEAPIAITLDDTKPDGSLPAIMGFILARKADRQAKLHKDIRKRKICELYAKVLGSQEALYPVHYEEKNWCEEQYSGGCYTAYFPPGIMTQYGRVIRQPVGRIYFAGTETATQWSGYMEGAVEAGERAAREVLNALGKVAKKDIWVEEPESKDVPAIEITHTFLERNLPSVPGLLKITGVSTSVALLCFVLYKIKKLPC
Procedure: (§1) Rats were decapitated and the brains were quickly taken into a weighted ice-cold sucrose buffer (0.32 M), and their weights were determined. All subsequent procedures were performed at 0-4° C. The brains were homogenized in 0.25 M sucrose (one part tissue to 20 parts sucrose) in a Teflon glass homogenizer followed by the addition of sucrose buffer to a final concentration of 10% homogenate. The homogenates were centrifuged at 600 g for 15 min. The supernatant fraction was taken out and centrifuged at 4500 g for 30 min, the pellet was diluted in 0.32 M sucrose buffer and kept frozen for later assaying of MAO. Protein concentration was determined with Bradford reagent at 595 nm, using bovine serum albumin as a standard.
(§2) The test compound was added to a suitable dilution of the enzyme preparation (70 μg protein for MAO-B and 150 μg MAO-A assay) in 0.05 M phosphate buffer (pH 7.4). The mixture was incubated together with […], a specific inhibitor of MAO-B (for determination of MAO-A) or […] clorgylin, a specific inhibitor of MAO-A (for determination of MAO-B). Incubation was carried for 1 h at 37° C. before addition of ^14C-5-hydroxytryptamine binoxalate ([…]) for determination of MAO-A, or ^14C-phenylethylamine 100 µM for determination of MAO-B, and incubation continued for 30 min or 20 min, respectively. The reaction was stopped with 2 M ice-cold citric acid, and the metabolites were extracted and determined by liquid-scintillation counting in cpm units.
(§3) MAO-A and MAO-B activities were determined in rat brain homogenate in vitro following incubation with varying concentrations of the test compounds.
In another experiment, the in vitro inhibitory activity of HLA20, M32, VK-28, M30, M31, and propargylamine (P) was tested against rat brain MAO-A. The test compounds were added to buffer containing 10^−7M deprenyl and were incubated with the tissue homogenate for 60 min at 37° C. before addition of ^14C-5-hydroxytryptamine. MAO-A activity in presence of the test compound was expressed as a percentage of that in control samples.

[5] = target: T2, rat brain MAO-B (Rattus norvegicus, UniProt P19643); test: In vitro inhibition of rat brain MAO-B; assay type: biochemical; settings: for IC50: rat brain homogenate
T2 construct: from tissue; host or cells: rat brain homogenate, 4500 g pellet
T2 sequence (P19643 1-520): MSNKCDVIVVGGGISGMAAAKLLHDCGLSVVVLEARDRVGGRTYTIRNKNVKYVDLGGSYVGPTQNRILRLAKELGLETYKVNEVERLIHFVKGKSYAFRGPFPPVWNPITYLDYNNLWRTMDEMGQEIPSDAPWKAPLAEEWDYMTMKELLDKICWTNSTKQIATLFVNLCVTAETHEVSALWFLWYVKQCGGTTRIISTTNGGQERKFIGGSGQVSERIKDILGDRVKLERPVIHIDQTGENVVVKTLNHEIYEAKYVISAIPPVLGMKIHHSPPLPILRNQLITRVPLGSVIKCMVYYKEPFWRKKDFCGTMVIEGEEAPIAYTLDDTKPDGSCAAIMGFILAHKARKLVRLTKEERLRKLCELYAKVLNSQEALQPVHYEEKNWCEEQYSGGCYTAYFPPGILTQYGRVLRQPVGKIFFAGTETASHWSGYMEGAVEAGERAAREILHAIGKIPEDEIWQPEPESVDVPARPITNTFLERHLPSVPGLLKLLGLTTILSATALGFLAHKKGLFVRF
Procedure: as §1, §2, §3
MAO-B activity in presence of the test compound was expressed as a percentage of that in control samples.

Compound: CCOC(=O)C(Cc1ccc(O)c2ncccc12)(NC(C)=O)C(=O)OCC
logD ([1]; H2O, read-out: LogD in H2O): 2.19
D in 0.01N HCl ([1]; 0.01N HCl): 0.043
D in 0.01N NaOH ([1]; 0.01N NaOH): 0.097
D in H2O ([1]; H2O): 155.68
logD ([1]; pH 2, 0.01N HCl, read-out: LogD in 0.01N HCl): -1.37
logD ([1]; pH 12, 0.01N NaOH, read-out: LogD in 0.01N NaOH): -1.01
EC50 ([2]; FIG. 1A): 5 µM

logD [1]: < -2
D in 0.01N HCl ([1]; 0.01N HCl): 0.0031
D in 0.01N NaOH ([1]; 0.01N NaOH): 0.020
D in H2O ([1]; H2O): 0.0049
logD ([1]; pH 2): < -2
logD ([1]; pH 12): -1.7
EC50 ([2]; FIG. 1A): 6 µM
Compound: NC(Cc1ccc(O)c2ncccc12)C(=O)O (racemic) [HLM8, DL-3-(8-hydroxyquinolin-5-yl)alanine]
half maximal time ([3]; FIG. 2A): 600 s

logD [1]: -1.7
D in 0.01N NaOH ([1]; 0.01N NaOH): 0.0014
D in H2O ([1]; H2O): 0.018
logD ([1]; pH 5.64): -1.42
logD ([1]; pH 12): < -2
D ([1]; phosphate buffer (pH = 5.64), printed in the 0.01N HCl column): 0.038^b
EC50 ([2]; FIG. 1A): 7.2 µM
Compound: CCOC(=O)C(N)Cc1ccc(O)c2ncccc12 (racemic) [HLM9, DL-3-(8-hydroxyquinolin-5-yl)alanine ethyl ester]
half maximal time ([3]; FIG. 2A): 200 s

EC50 ([2]; FIG. 1A): 8.3 µM
EC50 ([2]; FIG. 1B): 8.4 µM
EC50 ([2]; FIG. 1C): 6.6 µM
Compound: Cc1c(O)c(=O)ccn1C [Compound L1, 1,2-dimethyl-3-hydroxy-pyridin-4-one, reference compound]

EC50 ([2]; FIG. 1B): 9.7 µM
Compound: N[C@H](Cc1ccc(O)c2ncccc12)C(=O)O [Compound M9, D-3-(8-hydroxyquinolin-5-yl)alanine]

EC50 ([2]; FIG. 1B): 9.85 µM
Compound: N[C@@H](Cc1ccc(O)c2ncccc12)C(=O)O [Compound M10, L-3-(8-hydroxyquinolin-5-yl)alanine]
half maximal time ([3]; FIG. 2B): 1050 s

EC50 ([2]; FIG. 1C): 5.4 µM
Compound: N[C@H](CSCc1ccc(O)c2ncccc12)C(=O)O [Compound M11, S-(8-hydroxyquinolin-5-ylmethyl)-D-cysteine]

EC50 ([2]; FIG. 1C): 6 µM
Compound: N[C@@H](CSCc1ccc(O)c2ncccc12)C(=O)O [Compound M12, S-(8-hydroxyquinolin-5-ylmethyl)-L-cysteine]

IC50 [4]: < 0.1 µM
IC50 [5]: < 0.1 µM
Compound: C#CCN(C)Cc1ccc(O)c2ncccc12 [Compound M30]

effect on MAO-A [4]: almost no effect
inhibition at 100 µM ([5]; 100 μM, read-out: inhibition of MAO-B): 14.2%
Compound: C#CCNC(Cc1ccc(O)c2ncccc12)C(=O)OCC (centres unmarked) [Compound M31]

EC50 ([2]; FIG. 1A): 0.5 µM
EC50 ([2]; FIG. 1B): 0.5 µM
EC50 ([2]; FIG. 1C): 0.5 µM
Compound: CC(=O)N(O)CCCCCNC(=O)CCC(=O)N(O)CCCCCNC(=O)CCC(=O)N(O)CCCCCN [DFO, desferrioxamine B, reference compound]

logD [1]: 1.79
D in 0.01N HCl ([1]; 0.01N HCl): 0.018
D in 0.01N NaOH ([1]; 0.01N NaOH): 2.44
D in H2O ([1]; H2O): 62.96
logD ([1]; pH 2): -1.74
logD ([1]; pH 12): 0.39
EC50 ([2]; FIG. 1A): 3.5 µM
EC50 ([2]; FIG. 1B): 4.4 µM
Compound: CCOC(=O)N1CCN(Cc2ccc(O)c3ncccc23)CC1 [HLA16, ethyl 4-(8-hydroxyquinolin-5-ylmethyl)-1-piperazine carboxylate]
half maximal time ([3]; FIG. 2A): 225 s
half maximal time ([3]; FIG. 2B): 220 s

Compound: C#CCN [Propargylamine, propargylamine, reference compound]
IC50 [4]: 66.3 µM
IC50 [5]: 10.1 µM

Compound: O=C(NN=Cc1ccccc1O)c1ccncc1 [SIH, salicylaldehyde isonicotinoyl hydrazone, reference compound]
half maximal time ([3]; FIG. 2A): 125 s
half maximal time ([3]; FIG. 2C): 100 s

EC50 ([2]; FIG. 1C): 3.4 µM
Compound: Fmoc-KKC(HQ)L-NH2 [Compound M7]
